Measured values: ChEMBL document CHEMBL2176945, “Novel TEMPO-PEG-RGDs conjugates remediate tissue damage induced by acute limb ischemia/reperfusion” (2012)
Activity calls are given as the source filed them. The rule behind the calls is not given here. Residues, ends and D or L forms follow the SMILES beside them. *: point of attachment. X1 = CC1(C)CC(C(=O)*)CC(C)(C)N1[O]

Tests used:
Platelet [1] = assay: Antiplatelet activity against PAF-induced platelet aggregation in rabbit plasma at 100 nM for 120 mins by aggregometeric analysis; format: functional; details: Oryctolagus cuniculus
Platelet [2] = assay: Antiplatelet activity against ADP-induced platelet aggregation in rabbit plasma at 100 nM for 120 mins by aggregometeric analysis; format: functional; details: Oryctolagus cuniculus
Rattus norvegicus [3] = assay: Antithrombotic activity in Wistar rat model assessed as reduction of wet thrombus weight at 5 umol/kg after 15 mins; format: functional
Aorta = assay: Antioxidant activity in rat thoracic aortic strips assessed as free radical scavenging activity by measuring reversal of acetylcholine-induced relaxation; format: functional, tissue-based
Rattus norvegicus [4] = assay: (§1) Antiischemic activity in Wistar rat skeleton muscle assessed as protection against ischemic-reperfusion-induced irregular distribution of oxidative metabolism enzyme at 20 mg/kg, ip administered 15 minutes prior to induction of ischemia followed by administered 1 hr post reperfusion by using NADH staining by light microscopy analysis; format: functional, organism-based; set-up: dose 20 mg/kg; details: Muscle tissue
Rattus norvegicus [5] = assay: as §1, with “necrotic and swollen cells” for “irregular distribution of oxidative metabolism enzyme”, “Gomori trichrome” for “NADH”; format: functional, organism-based; set-up: dose 20 mg/kg; details: Muscle tissue
Rattus norvegicus [6] = assay: Antiischemic activity against Wistar rat ischemic-reperfusion model assessed decrease in lipid peroxidation at 20 mg/kg, ip administered 15 minutes prior to induction of ischemia followed by administered 1 hr post reperfusion; format: functional, organism-based; set-up: dose 20 mg/kg
Rattus norvegicus [7] = assay: as §1, with “myocardia” for “skeleton muscle”, “contraction band” for “irregular distribution of oxidative metabolism enzyme”, “hematoxylin-eosin stain” for “NADH staining”; format: functional, organism-based; set-up: dose 20 mg/kg
Rattus norvegicus [8] = assay: as §1, with “myocardia” for “skeleton muscle”, “pyknotic nuclei” for “irregular distribution of oxidative metabolism enzyme”, “hematoxylin-eosin stain” for “NADH staining”; format: functional, organism-based; set-up: dose 20 mg/kg
Rattus norvegicus [9] = assay: as §1, with “membrane ruptures with dissolution” for “irregular distribution”, “myofibrils” for “oxidative metabolism enzyme”, “Gomori trichrome” for “NADH”; format: functional, organism-based; set-up: dose 20 mg/kg; details: Muscle tissue
Rattus norvegicus [10] = assay: as §1, with “neutrophil accumulation” for “irregular distribution of oxidative metabolism enzyme”, “hematoxylin-eosin” for “NADH”; format: functional, organism-based; set-up: dose 20 mg/kg; details: Muscle tissue
Rattus norvegicus [11] = assay: (§2) Antiischemic activity in Wistar rat myocardia assessed as protection against ischemic-reperfusion-induced tightly woven network of collagen and mild edema between fibre at 20 mg/kg, ip administered 15 minutes prior to induction of ischemia followed by administered 1 hr post reperfusion by using modified gomori trichome staining by light microscopy analysis; format: functional, organism-based; set-up: dose 20 mg/kg
Rattus norvegicus [12] = assay: Antiischemic activity against Wistar rat ischemic-reperfusion model assessed as wet/dry edema tissue ratio at 20 mg/kg, ip administered 15 minutes prior to induction of ischemia followed by administered 1 hr post reperfusion; format: functional
Rattus norvegicus [13] = assay: as §2, with “edema” for “edema between fibre”, “hematoxylin-eosin stain” for “modified gomori trichome staining”, “Light” for “light”; format: functional, organism-based; set-up: dose 20 mg/kg
Rattus norvegicus [14] = assay: Antiischemic activity in Wistar rat myocardia assessed as protection against ischemic-reperfusion-induced edema between wavy muscle fibre and surrounding blood vessels at 20 mg/kg, ip administered 15 minutes prior to induction of ischemia followed by administered 1 hr post reperfusion by using hematoxylin-eosin stain by light microscopy analysis; format: functional, organism-based; set-up: dose 20 mg/kg
Rattus norvegicus [15] = assay: as §2, with “NADH stain” for “gomori trichome staining”; format: functional, organism-based; set-up: dose 20 mg/kg
Rattus norvegicus [16] = assay: as §2, with “relaxed” for “tightly woven network of”, “collagen” for “collagen and mild edema between”, “fibre sourrounding indivisual myocardial tract” for “fibre”, “stain” for “staining”; format: functional, organism-based; set-up: dose 20 mg/kg
Rattus norvegicus [17] = assay: Antiischemic activity against Wistar rat ischemic-reperfusion model assessed decrease in SOD level in plasma at 20 mg/kg, ip administered 15 minutes prior to induction of ischemia followed by administered 1 hr post reperfusion; format: functional, organism-based; set-up: dose 20 mg/kg
Rattus norvegicus [18] = assay: Antiischemic activity against Wistar rat ischemic-reperfusion model assessed decrease in MDA level in plasma at 20 mg/kg, ip administered 15 minutes prior to induction of ischemia followed by administered 1 hr post reperfusion; format: functional, organism-based; set-up: dose 20 mg/kg
Rattus norvegicus [19] = assay: as §1, with “interstitial edema” for “irregular distribution of oxidative metabolism enzyme”, “Gomori trichrome” for “NADH”; format: functional, organism-based; set-up: dose 20 mg/kg; details: Muscle tissue
Rattus norvegicus [20] = assay: as §1, with “muscle edema” for “irregular distribution of oxidative metabolism enzyme”, “hematoxylin-eosin” for “NADH”; format: functional, organism-based; set-up: dose 20 mg/kg; details: Muscle tissue
Rattus norvegicus [21] = assay: as §1, with “ragged red fibrils formation” for “irregular distribution of oxidative metabolism enzyme”, “using modified” for “using”, “stain” for “staining”, “Light” for “light”; format: functional, organism-based; set-up: dose 20 mg/kg; details: Muscle tissue
Rattus norvegicus [22] = assay: as §1, with “cell necrosis” for “irregular distribution of oxidative metabolism enzyme”, “hematoxylin-eosin” for “NADH”; format: functional, organism-based; set-up: dose 20 mg/kg; details: Muscle tissue
Rattus norvegicus [23] = assay: Antithrombotic activity in Wistar rat model assessed as reduction of dry thrombus weight at 5 umol/kg after 15 mins; format: functional, organism-based

SMILES	Activity (Platelet [1])	Activity (Platelet [2])	Wet thrombus weight (Rattus norvegicus [3]) [mg]	Activity (Aorta)	Activity (Rattus norvegicus [23]) [mg]	also measured
CC1(C)CC(C(=O)NCCOCCOCCOCCOCCOCCOCCOCCNC(=O)COCC(=O)N[C@@H](CCCNC(=N)N)C(=O)NCC(=O)N[C@@H](CC(=O)O)C(=O)N[C@@H](CO)C(=O)O)CC(C)(C)N1[O]	Active	Active	23.6	Active		
CC1(C)CC(C(=O)NCCOCCOCCOCCOCCOCCOCCOCCNC(=O)COCC(=O)N[C@@H](CCCNC(=N)N)C(=O)NCC(=O)N[C@@H](CC(=O)O)C(=O)N[C@@H](Cc2ccccc2)C(=O)O)CC(C)(C)N1[O]	Active	Active	20.7	Active		Activity (Rattus norvegicus [4]): Active; Activity (Rattus norvegicus [5]): Active; Activity (Rattus norvegicus [6]): Active; Activity (Rattus norvegicus [7]): Active; Activity (Rattus norvegicus [8]): Active; Activity (Rattus norvegicus [9]): Active; Activity (Rattus norvegicus [10]): Active; Activity (Rattus norvegicus [11]): Active; Ratio (Rattus norvegicus [12]): 3.45; Activity (Rattus norvegicus [13]): Active; Activity (Rattus norvegicus [14]): Active; Activity (Rattus norvegicus [15]): Active; Activity (Rattus norvegicus [16]): Active; Activity (Rattus norvegicus [17]): Active; Activity (Rattus norvegicus [18]): Active; Activity (Rattus norvegicus [19]): Active; Activity (Rattus norvegicus [20]): Active; Activity (Rattus norvegicus [21]): Active; Activity (Rattus norvegicus [22]): Active
CC1(C)CC(O)CC(C)(C)N1[O] [TEMPOL]				Active		Ratio (Rattus norvegicus [12]; route intraperitoneal): 4.49
CC1(C)CC(C(=O)N[C@@H](CCCNC(=N)N)C(=O)NCC(=O)N[C@@H](CC(=O)O)C(=O)N[C@@H](Cc2ccccc2)C(=O)O)CC(C)(C)N1[O] (X1-RGDF-OH)	Active	Active		Active	22.3	
CC1(C)CC(C(=O)N[C@@H](CCCNC(=N)N)C(=O)NCC(=O)N[C@@H](CC(=O)O)C(=O)N[C@@H](CO)C(=O)O)CC(C)(C)N1[O] (X1-RGDS-OH)	Active	Active		Active	25.9	
CC(C)[C@H](NC(=O)[C@H](CC(=O)O)NC(=O)CNC(=O)[C@H](CCCNC(=N)N)NC(=O)COCC(=O)NCCOCCOCCOCCOCCOCCOCCOCCNC(=O)C1CC(C)(C)N([O])C(C)(C)C1)C(=O)O	Active	Active	24.7	Active		
CC(C)[C@H](NC(=O)[C@H](CC(=O)O)NC(=O)CNC(=O)[C@H](CCCNC(=N)N)NC(=O)C1CC(C)(C)N([O])C(C)(C)C1)C(=O)O (X1-RGDV-OH)	Active	Active		Active	25.1	
CC(=O)Oc1ccccc1C(=O)O [ASPIRIN]						Activity (Rattus norvegicus [3]): 27.6 mg
